Molecules are shown by their SMILES.

Sequence of Factor IXa (P00740 227-461): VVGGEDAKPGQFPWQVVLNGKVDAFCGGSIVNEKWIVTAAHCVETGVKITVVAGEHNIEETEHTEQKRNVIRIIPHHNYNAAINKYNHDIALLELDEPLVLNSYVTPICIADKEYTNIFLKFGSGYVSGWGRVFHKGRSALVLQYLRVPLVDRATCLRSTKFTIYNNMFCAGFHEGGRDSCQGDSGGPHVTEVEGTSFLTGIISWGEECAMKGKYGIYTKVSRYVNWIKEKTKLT
Sequence of Factor IXa (P00740 47-191 partner): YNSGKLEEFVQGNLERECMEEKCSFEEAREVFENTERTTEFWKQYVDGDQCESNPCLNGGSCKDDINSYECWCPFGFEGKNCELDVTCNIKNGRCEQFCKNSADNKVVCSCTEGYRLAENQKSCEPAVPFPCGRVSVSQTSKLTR

One experiment addresses Factor IXa (Homo sapiens (Human), UniProt P00740). Put plainly: Determination of inhibitory activity against Factor IXa (cleavage of fluorescent peptide CH3SO2-D-CHG-Gly-Arg-AFC). The note with it: read-out: FIXa IC50. The class given is biochemical. Here is the method:
Determination of Inhibitory Activity Against Factor IXa
Formation of a clot to stem bleeding at a site of blood vessel injury involves the coordinated activity of a group of plasma proteins that initiate and propagate fibrin formation and subsequently protect fibrin from premature degradation. Factor IX is a key component of the plasma system that forms a fibrin clot at a site of vascular injury. The activity of Factor IXa is measured by monitoring the cleavage of the fluorescent peptide, CH3SO2-D-CHG-Gly-Arg-AFC.AcOH (“CHG” is cyclohexyl-glycine and “AFC” is trifluoro aminomethyl coumarin). Factor IXa cleaves the amide bond between Arg and AFC, thereby releasing the AFC fluorophore. The free AFC can be detected with a fluorescence detector at an excitation wavelength of 405 nm and emission wavelength of 510 nm.
Regarding `Cc1cc2nc([C@@](C)(CNC(=O)c3c(Cl)cc(-n4cnnc4)cc3Cl)c3ccc(F)cc3)[nH]c2cc1C` [Example 70], the half-maximal inhibitory concentration (IC50) came out at 5.6 nM.

Regarding `Cc1cc2cc([C@@H](CNC(=O)c3c(Cl)cc(-n4cnnc4)cc3Cl)c3ccccc3)[nH]c2cc1C` [Example 74, (R)-2,6-dichloro-N-(2-(5,6-dimethyl-1H-indol-2-yl)-2-phenylethyl)-4-(4H-1,2,4-triazol-4-yl)benzamide], the IC50 was found to be 29.1 nM.

As to `Cc1ncn(-c2cc(Cl)c(C(=O)NC[C@@H](c3cccc(F)c3)c3ccc4[nH]c(C)nc4c3)c(Cl)c2)n1` [Example 75, (R)-2,6-dichloro-N-(2-(3-fluorophenyl)-2-(2-methyl-1H-benzo[d]imidazol-5-yl)ethyl)-4-(3-methyl-1H-1,2,4-triazol-1-yl)benzamide], the IC50 was 9.1 nM.

With `Cc1ncn(-c2cc(Cl)c(C(=O)NC[C@@H](c3cccc(F)c3)c3cnc4[nH]c(C)nc4c3)c(Cl)c2)n1` [Example 76, (S)-2,6-dichloro-N-(2-(3-fluorophenyl)-2-(2-methyl-3H-imidazo[4,5-b]pyridin-6-yl)ethyl)-4-(3-methyl-1H-1,2,4-triazol-1-yl)benzamide], the concentration for half-maximal inhibition (IC50) came out at 80.6 nM.

Turning to `Cc1ncn(-c2cc(Cl)c(C(=O)NC[C@@H](c3cccc(F)c3)c3ccc4sc(C)nc4c3)c(Cl)c2)n1` [Example 83, (R)-2,6-dichloro-N-(2-(3-fluorophenyl)-2-(2-methylbenzo[d]thiazol-5-yl)ethyl)-4-(3-methyl-1H-1,2,4-triazol-1-yl)benzamide], the half-inhibitory concentration (IC50) was found to be 59.5 nM.

Take `Cc1ccc2nn([C@@H](CNC(=O)c3ccc(-n4cnnc4)cc3Cl)c3ccccc3)cc2c1` [Example 84, (R)-2-chloro-N-(2-(5-methyl-2H-indazol-2-yl)-2-phenylethyl)-4-(4H-1,2,4-triazol-4-yl)benzamide]: the IC50 was found to be 240 nM.

Regarding `Cc1ccc2c(cnn2[C@H](CNC(=O)c2ccc(-n3cnnc3)cc2Cl)c2ccccc2)c1` [Example 85, (S)-2-chloro-N-(2-(5-methyl-1H-indazol-1-yl)-2-phenylethyl)-4-(4H-1,2,4-triazol-4-yl)benzamide], the IC50 was 38 nM.

Still in this experiment, the particulars now being: read-out: hFIXa IC50.
As to `Cc1ncn(-c2cc(Cl)c(C(=O)NC[C@@H](c3cccc(F)c3)c3nc4ccc(Cl)cc4[nH]3)c(Cl)c2)n1` [Example 46], the IC50 amounted to 9.78 nM.

Turning to `Cc1ncn(-c2cc(Cl)c(C(=O)NCC(c3cccc(F)c3)c3nc4c(C)cc(Cl)cc4[nH]3)c(Cl)c2)n1` (stereo not shown) [Example 47], the IC50 came to 6.18 nM.

For `COc1cc2nc(C(CNC(=O)c3c(Cl)cc(-n4cnc(C)n4)cc3Cl)c3cccc(F)c3)[nH]c2cc1Cl` (stereo not shown) [Example 48], the IC50 worked out at 2.86 nM.

As to `COc1ccc2nc(C(CNC(=O)c3c(Cl)cc(-n4cnc(C)n4)cc3Cl)c3cccc(F)c3)[nH]c2c1` (stereo not shown) [Example 49], the IC50 worked out at 49.1 nM.

For the molecule `Cc1cc2nc(C(CNC(=O)c3ccc(-n4cnnc4)cc3Cl)c3cccc(F)c3)[nH]c2cc1C` (stereo not shown) [Example 50], the IC50 amounted to 5.69 nM.

With `Cc1cc2nc(C(CNC(=O)c3ccc(-n4cnnc4)cc3Cl)c3ccccc3F)[nH]c2cc1C` (stereo not shown) [Example 51], the IC50 is 19.3 nM.

Take `Cc1cc2nc(C(CNC(=O)c3ccc(-n4cnnc4)cc3Cl)c3ccc(F)cc3)[nH]c2cc1C` (stereo not shown) [Example 52]: the IC50 came to 8.42 nM.

As for `Cc1cc2nc(C(CNC(=O)c3c(Cl)cc(-n4cnnc4)cc3Cl)c3ccc(F)cc3)[nH]c2cc1C` (stereo not shown) [Example 53], the IC50 is 2.82 nM.

Regarding `Cc1ncn(-c2ccc(C(=O)NCC(c3ccc(C(F)(F)F)nc3)c3nc4cc(C)c(C)cc4[nH]3)c(Cl)c2)n1` (stereo not shown) [Example 55], the IC50 amounted to 427 nM.

On to `Cc1cc2nc(C(CNC(=O)c3ccc(-n4cnnc4)cc3Cl)c3cccnc3)[nH]c2cc1C` (stereo not shown) [Example 56], for which the IC50 was found to be 15.3 nM.

On to `COc1cc2nc([C@@H](CNC(=O)c3c(Cl)cc(-n4cnc(C)n4)cc3Cl)c3cnc(N(C)C)nc3)[nH]c2cc1Cl` [Example 57], for which the IC50 came out at 8.76 nM.

For `COc1cc2nc([C@@H](CNC(=O)c3c(Cl)cc(-n4cnc(C)n4)cc3Cl)c3ccc(C(N)=O)cc3)[nH]c2cc1Cl` [Example 58], the IC50 came out at 2.36 nM.

With `COc1cc2nc(C(CNC(=O)c3c(Cl)cc(-n4cnc(C)n4)cc3Cl)c3cccc(C(=O)O)c3)[nH]c2cc1Cl` (stereo not shown) [Example 59], the IC50 was found to be 1.5 nM.

For `COc1cc2nc([C@@H](CNC(=O)c3c(Cl)cc(-n4cnc(C)n4)cc3Cl)c3ccc(C(=O)O)cc3)[nH]c2cc1Cl` [Example 60], the half-inhibitory concentration (IC50) was 4.79 nM.

With `CNC(=O)c1cccc([C@H](CNC(=O)c2c(Cl)cc(-n3cnc(C)n3)cc2Cl)c2nc3cc(OC)c(Cl)cc3[nH]2)c1` [Example 61], the IC50 was 4.78 nM.

On to `COc1cc2nc(C(CNC(=O)c3c(Cl)cc(-n4cnc(C)n4)cc3Cl)c3cccc(CC(=O)O)c3)[nH]c2cc1Cl` (stereo not shown) [Example 62], for which the IC50 was 1.75 nM.

Consider `COc1cc2nc([C@@H](CNC(=O)c3c(Cl)cc(-n4cnc(C)n4)cc3Cl)c3ccc(C(=O)N(C)C)cc3)[nH]c2cc1Cl` [Example 63], for which the IC50 came to 27.7 nM.

With `COC(=O)Cc1cccc(C(CNC(=O)c2c(Cl)cc(-n3cnc(C)n3)cc2Cl)c2nc3cc(OC)c(Cl)cc3[nH]2)c1` (stereo not shown) [Example 64], the IC50 is 6.1 nM.

For the molecule `CCOC(=O)c1ccc([C@H](CNC(=O)c2c(Cl)cc(-n3cnc(C)n3)cc2Cl)c2nc3cc(OC)c(Cl)cc3[nH]2)cc1` [Example 65], the IC50 turned out to be 5.6 nM.

Take `CCOC(=O)c1cccc([C@H](CNC(=O)c2c(Cl)cc(-n3cnc(C)n3)cc2Cl)c2nc3cc(OC)c(Cl)cc3[nH]2)c1` [Example 66]: the IC50 was found to be 16.8 nM.

For the molecule `COc1cc2nc([C@@H](CNC(=O)c3c(Cl)cc(-n4cnc(C)n4)cc3Cl)c3cccc(C(=O)NC4CC4)c3)[nH]c2cc1Cl` [Example 67], the IC50 is 2.9 nM.

As to `Cc1cc2nc(C(CNC(=O)c3ccc(-n4cnnc4)cc3Cl)c3cccc(F)c3)oc2cc1C` (stereo not shown) [Example 68], the IC50 was found to be 71.9 nM.

On to `COc1cc2nc([C@@H](CNC(=O)c3c(Cl)cc(-n4cnc(C)n4)cc3Cl)n3cc(CN(C)C)nn3)[nH]c2cc1Cl` [Example 72], for which the IC50 amounted to 67.2 nM.

Turning to `COc1cc2nc(C(CNC(=O)c3c(Cl)cc(-n4cnc(C)n4)cc3Cl)n3cc(C(C)(C)O)nn3)[nH]c2cc1Cl` (stereo not shown) [Example 73], the IC50 was determined as 34.4 nM.

`Cc1ncn(-c2cc(Cl)c(C(=O)NC[C@@H](c3cccc(F)c3)c3cnc4[nH]c(C)cc4c3)c(Cl)c2)n1` [Example 77]: the IC50 was 3.7 nM.

With `Cc1ncn(-c2cc(Cl)c(C(=O)NC[C@@H](c3cccc(F)c3)c3ccc4[nH]c(C)nc4c3F)c(Cl)c2)n1` [Example 78], the IC50 was 1.93 nM.

Turning to `Cc1ncn(-c2cc(Cl)c(C(=O)NC[C@@H](c3cccc(F)c3)c3cc(F)c4[nH]c(C)nc4c3)c(Cl)c2)n1` [Example 79], the IC50 was found to be 6.42 nM.

Regarding `Cc1ncn(-c2cc(Cl)c(C(=O)NC[C@@H](c3cccc(F)c3)c3ccc4[nH]c(C)nc4n3)c(Cl)c2)n1` [Example 80], the IC50 was 16.9 nM.

As to `Cc1ncn(-c2cc(Cl)c(C(=O)NCC(c3cccc(F)c3)c3cc4nc(C)[nH]c4cn3)c(Cl)c2)n1` (stereo not shown) [Example 81], the IC50 is 126 nM.

On to `Cc1ncn(-c2cc(Cl)c(C(=O)NC[C@@H](c3cccc(F)c3)c3cc(C)c4[nH]c(C)nc4c3)c(Cl)c2)n1` [Example 82], for which the IC50 is 75.2 nM.

The values are drawn from patent US10189819B2, “Factor IXa inhibitors” (MERCK SHARP & DOHME CORP., priority 2014, dated 2019).
